The subject of one assay is p-gp130. The experiment in a line: p-gp130 AlphaLISA in U87-MG cells. Type of assay: cell-based, human. The conditions noted are these: 30 μM for 3 hours, FIG. 2D. As for the experimental part:
FIG. 2. Development of p-gp 130 and gp130 AlphaLISA assays (A) Evaluation of p-gp 130 and gp 130 levels in U87-MG and SH-SY5Y cells after treatment with compound 2 by immunoblotting. (B) Principle of AlphaLISA assay. (C) Data of developed gp-130 AlphaLISA assay. Analyte is recombinant gp130 (EC domain).
Eight different antibodies (more than 20 combinations) were tested in a course of p-gp130 and gp130 AlphaLISA development. The principle of the AlphaLISA assay is depicted in FIG. 2B. […] Lysate buffer composition and treatment conditions have been optimized.

For the next assay, the system named is p-AKT. The experiment in a line: p-AKT AlphaLISA in U87-MG cells. Type of assay: cell-based, human. The arrangement: dose or concentration left out as unconfirmed. The conditions noted are these: FIG. 2D. The source says: (§1) An ELISA assay for the evaluation of the p-gp130 levels was developed. This was a commercial ELISA—DuoSet ELISA from R&D systems (cat #DYC3407-2) and detected the tyrosine phosphorylation of gp130. […] In addition, a commercially available p-AKT (1,2,3) AlphaLISA kit was used (PE cat #ALSU-PAKT-B-HV) for the HTS assay.
(§2) Small molecules that act as HN mimetics represent a new class of AD therapeutics. Through screening, validated hits that increase both p-gp-130 and p-Akt levels were identified. Human glioblastoma cells were used, U87-MG. Several hits that enhance p-gp 130 were identified as well as several compounds that can increase p-AKT (FIG. 3).
Into a 96 well plate was added 99 μL of warm DMEM/F12 without FBS, then 1 uL of compounds at 1 mM were loaded into the96 well plate. These generated the compounds at 2×. Into a 96 well plate was added IL6/IL6R solution to achieve 6.6×10−4 mg/mL and 3.3×10−4 mg/mL respectively, this is 2× concentration. For this, primary EL6 stock (0.1 mg/mL) was diluted150-fold and IL6R stock (0.1 mg/mL) 300-fold to treat cells with final concentration of 6.6×10−4 mg/mL and 3.3×10−4 mg/mL respectively. 10 ml of Sample Diluent Concentrate 2 (2X)(Part #895891/DYC002)+10 ml ddH2O+200 ul of 100 mM activated Na3VO4 (aliquots at −20C)+20 ul of 10 mg/ml aprotinin (stock at 4C)+20 ul of 10 mg/ml leupeptin (aliquots at −20C)+200 ul PIC-protected from light. […]

In a further assay the target is T1, gp130 receptor (Homo sapiens, UniProt P40189).
T1 construct: express more than 10 times more endogenous gp130; endogenous in cells; host or cells: U87-MG
T1 sequence (P40189 23-918): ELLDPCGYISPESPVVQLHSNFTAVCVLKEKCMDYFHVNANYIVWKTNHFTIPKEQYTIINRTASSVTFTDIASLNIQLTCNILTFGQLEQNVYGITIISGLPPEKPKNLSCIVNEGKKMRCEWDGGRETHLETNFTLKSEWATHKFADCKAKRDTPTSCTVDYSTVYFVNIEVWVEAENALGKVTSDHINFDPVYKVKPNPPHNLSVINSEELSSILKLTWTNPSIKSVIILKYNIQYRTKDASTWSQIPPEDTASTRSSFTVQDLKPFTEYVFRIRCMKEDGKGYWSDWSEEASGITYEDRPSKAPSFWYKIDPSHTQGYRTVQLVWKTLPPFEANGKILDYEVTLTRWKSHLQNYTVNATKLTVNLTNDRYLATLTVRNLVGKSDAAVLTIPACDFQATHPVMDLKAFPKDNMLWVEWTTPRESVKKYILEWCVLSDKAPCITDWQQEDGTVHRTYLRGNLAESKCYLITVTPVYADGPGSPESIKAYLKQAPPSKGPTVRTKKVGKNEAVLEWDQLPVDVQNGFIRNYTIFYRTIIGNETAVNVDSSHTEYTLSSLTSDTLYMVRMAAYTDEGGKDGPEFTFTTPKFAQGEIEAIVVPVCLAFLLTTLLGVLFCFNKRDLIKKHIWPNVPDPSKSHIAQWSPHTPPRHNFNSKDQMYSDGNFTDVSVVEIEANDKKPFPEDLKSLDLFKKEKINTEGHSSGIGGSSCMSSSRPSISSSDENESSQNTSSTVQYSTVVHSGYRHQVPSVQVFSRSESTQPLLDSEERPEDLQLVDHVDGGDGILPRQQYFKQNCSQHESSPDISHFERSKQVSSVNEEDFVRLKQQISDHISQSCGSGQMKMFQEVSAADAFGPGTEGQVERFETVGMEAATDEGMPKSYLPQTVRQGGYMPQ
The experiment in a line: p-gp130 (p-Tyr) ELISA, HTS validation and dose response in U87-MG cells. Type of assay: cell-based. The conditions noted are these: for p-gp130 (p-Tyr) dose response activity: dose response of validated hits, FIG. 4; for activation of gp130 receptor / increase of p-gp130: validation testing, truncated humanin peptides.
Text: as §1, §2
(§3) Into a 96 well plate was added 99 μL of warm DMEM/F12 without FBS, then 1 uL of compounds at 1 mM were loaded into the96 well plate. These generated the compounds at 2×. Into a 96 well plate was added IL6/IL6R solution to achieve 6.6×10−4 mg/mL and 3.3×10−4 mg/mL respectively, this is 2× concentration. For this, primary EL6 stock (0.1 mg/mL) was diluted150-fold and IL6R stock (0.1 mg/mL) 300-fold to treat cells with final concentration of 6.6×10−4 mg/mL and 3.3×10−4 mg/mL respectively. 10 ml of Sample Diluent Concentrate 2 (2X)(Part #895891/DYC002)+10 ml ddH2O+200 ul of 100 mM activated Na3VO4 (aliquots at −20C)+20 ul of 10 mg/ml aprotinin (stock at 4C)+20 ul of 10 mg/ml leupeptin (aliquots at −20C)+200 ul PIC-protected from light. Lysis buffer containing 1% NP-40 Alternative, 20 mM Tris (pH 8.0), 137 mM NaCl, 10% glycerol, 2 mM EDTA, 1 mM activated sodium orthovanadate, 10 μg/mL Aprotinin, 10 μg/mL Leupeptin. Placed on ice. Removed the media from the cell plate and add 50 μL of DMEM/F12 without FBS. Then, added 50 μL of the compounds or positive control IL6/IL6R at 2× into the cell plate using the multichannel (FIG. 7). Allowed the treatment to take place for 10 minutes in the incubator at 37° C. and 5% CO2. Cells were lysed with 130 μL of ice-cold lysis buffer. Placed cells on ice for 15 min, then in the −80° C. overnight. Next, we prepared the ELISA plate by warming coating buffer to RT. 12 strips were coated with capture antibody. For this: 121 μL of 180 μg/mL of capture antibody (R&D DYC3407-2) was added into 21.48 mL of coating buffer. 100 μL of this solution was added to each well, covered with a lead and incubated at RT overnight and then conducted the ELISA assay using the manufacture outlined protocol. The cell lysate from the HTS was prepared using the AlphaLISA buffer to measure levels of p-AKT after compound treatment.
A general note: ELISA stands for enzyme-linked immunosorbent assay.

The test system of the next assay is p-gp130 and p-Akt. The experiment in a line: HN mimetic activity (p-gp130 and p-Akt). Type of assay: cell-based, human.
Text: as §1, §2
as §3, with “For this: 121 μL of 180 μg/mL of capture antibody (R&D DYC3407-2) was added into 21.48 mL of coating buffer. 100 μL of this solution was added to each well, covered with a lead and incubated at RT overnight and then conducted the ELISA assay using the manufacture outlined protocol. The cell lysate from the HTS was prepared using the AlphaLISA buffer to measure levels of p-AKT after compound treatment.” left out

Peptide text beside a SMILES is read from it. * marks the point of attachment. Cbz = O=C(OCc1ccccc1)*

In the case of `C#CCSC[C@H](N)C(=O)O` [S-propargyl-cyctein (SPRC), S-propargyl-cyctein], the “p-gp130 AlphaLISA signal” value with p-gp130 is “significant increaste”. Moreover, the “p-AKT AlphaLISA signal” value in the assay with p-AKT was “significant increaste”.

Consider `CCC(=O)Nc1ccc2nc(C)n(-c3cccc(Cl)c3)c(=O)c2c1` [DDL-813], for which the “p-gp130 (p-Tyr) dose response activity” value at gp130 receptor was “most potent showing submicromolar activity”.

“H-TGEINLPVK-OH [DDL-815, NH2-Thr-Gly-Glu-Ile-Asn-Leu-Pro-Val-Lys-COOH]”: the HN mimetic activity result in the assay on p-gp130 and p-Akt is “weaker HN mimetic activity through lower p-gp130 and p-Akt”.

With `CC[C@H](C)[C@H](NC(=O)[C@H](CCC(=O)O)NC(=O)CNC(=O)[C@@H](N)[C@@H](C)O)C(=O)O` [DDL-842, NH2-Thr-Gly-Glu-Ile-COOH] (H-TGEI-OH), the HN mimetic activity result with p-gp130 and p-Akt was “weak HN mimetic activity”.

“H-TSEINLPVK-OH [DDL-814, NH2-Thr-Ser-Glu-Ile-Asn-Leu-Pro-Val-Lys-COOH]”: on gp130 receptor, the “p-gp130 (p-Tyr) dose response activity” value is on record as “good activity” and the “activation of gp130 receptor / increase of p-gp130” value is recorded as “activate the gp130 receptor”. Besides, the “activation of gp130 receptor / increase of p-gp130” value at gp130 receptor (listed as P3) is listed as “increased p-gp-130”.

Regarding Cbz-Thr-Ser-NH2 [DDL-841], the HN mimetic activity entry in the assay on p-gp130 and p-Akt is reported as “increased HN mimetic activity”.

Values taken from US20260317384A1, “SMALL MOLECULE HUMANIN MIMETICS” (The Regents of the University Of California, priority 2023, published 2026).
